Assay results published in ChEMBL document CHEMBL3616395, “Discovery of 4-arylamido 3-methyl isoxazole derivatives as novel FMS kinase inhibitors” (Eur J Med Chem, 2015).
pIC50: −log10 of the molar value. Blank lines part the entries; values can stand above or below the compound they belong to. Activity calls are given as the source filed them. The rule behind the calls is not given here.

Key:
U-937 = assay: Antiproliferative activity against human U937 cells after 24 hrs by MTT assay; type: functional; details: U-937, 24 h
A375P = assay: Antiproliferative activity against human A375P cells after 24 hrs by MTT assay; type: functional, cell-based
[1] = Cytotoxicity against human HS27 cells after 24 hrs by MTT assay; type: cell-based
[2] = target: RAC-alpha serine/threonine-protein kinase (Homo sapiens) (UniProt P31749); assay: Inhibition of AKT1 (unknown origin) at 10 uM after 40 mins by scintillation counting analysis
[3] = target: ALK tyrosine kinase receptor (Homo sapiens) (UniProt Q9UM73); assay: Inhibition of ALK (unknown origin) at 10 uM after 40 mins by scintillation counting analysis
[4] = target: Aurora kinase A (Homo sapiens) (UniProt O14965); assay: Inhibition of Aurora A (unknown origin) at 10 uM after 40 mins by scintillation counting analysis
[5] = target: T1, Serine/threonine-protein kinase B-raf (Homo sapiens, UniProt P15056); assay: Inhibition of BRAF (unknown origin) at 10 uM after 40 mins by scintillation counting analysis
[6] = tested on: Serine/threonine-protein kinase B-raf (Homo sapiens), P15056 [V600E]; assay: Inhibition of BRAF V599E mutant (unknown origin) at 10 uM after 40 mins by scintillation counting analysis
[7] = target: Mast/stem cell growth factor receptor Kit (Homo sapiens) (UniProt P10721); assay: Inhibition of c-Kit (unknown origin) at 10 uM after 40 mins by scintillation counting analysis
[8] = target: Hepatocyte growth factor receptor (Homo sapiens) (UniProt P08581); assay: Inhibition of c-MET (unknown origin) at 10 uM after 40 mins by scintillation counting analysis
[9] = target: Cyclin-dependent kinase 1/cyclin B (Homo sapiens) (UniProt P06493+P14635+Q8WWL7+O95067); assay: Inhibition of CDK1/cyclin B (unknown origin) at 10 uM after 40 mins by scintillation counting analysis; type: protein-complex assay
[10] = target: Cyclin-dependent kinase 2/cyclin E (Homo sapiens) (UniProt P24864+P24941+O96020); assay: Inhibition of CDK2/cyclin E (unknown origin) at 10 uM after 40 mins by scintillation counting analysis; type: protein-complex assay
[11] = target: Epidermal growth factor receptor (Homo sapiens) (UniProt P00533); assay: Inhibition of EGFR (unknown origin) at 10 uM after 40 mins by scintillation counting analysis
[12] = target: Mitogen-activated protein kinase 3 (Homo sapiens) (UniProt P27361); assay: Inhibition of ErK1 (unknown origin) at 10 uM after 40 mins by scintillation counting analysis
[13] = target: Focal adhesion kinase 1 (Homo sapiens) (UniProt Q05397); assay: Inhibition of FAK (unknown origin) at 10 uM after 40 mins by scintillation counting analysis
[14] = target: Fibroblast growth factor receptor 2 (Homo sapiens) (UniProt P21802); assay: Inhibition of FGFR2 (unknown origin) at 10 uM after 40 mins by scintillation counting analysis
[15] = target: Fibroblast growth factor receptor 3 (Homo sapiens) (UniProt P22607); assay: Inhibition of FGFR3 (unknown origin) at 10 uM after 40 mins by scintillation counting analysis
[16] = target: Receptor-type tyrosine-protein kinase FLT3 (Homo sapiens) (UniProt P36888); assay: Inhibition of FLT3 (unknown origin) at 10 uM after 40 mins by scintillation counting analysis
[17] = target: T2, Macrophage colony-stimulating factor 1 receptor (Homo sapiens, UniProt P07333); assay: Inhibition of FMS (unknown origin) at 10 uM after 40 mins by scintillation counting analysis
[18] = target: Glycogen synthase kinase-3 beta (Homo sapiens) (UniProt P49841); assay: Inhibition of GSK3b (unknown origin) at 10 uM after 40 mins by scintillation counting analysis
[19] = target: Insulin-like growth factor 1 receptor (Homo sapiens) (UniProt P08069); assay: Inhibition of IGF1R (unknown origin) at 10 uM after 40 mins by scintillation counting analysis
[20] = target: Tyrosine-protein kinase JAK3 (Homo sapiens) (UniProt P52333); assay: Inhibition of Jak3 (unknown origin) at 10 uM after 40 mins by scintillation counting analysis
[21] = target: Mitogen-activated protein kinase 10 (Homo sapiens) (UniProt P53779); assay: Inhibition of JNK3 (unknown origin) at 10 uM after 40 mins by scintillation counting analysis
[22] = target: Vascular endothelial growth factor receptor 2 (Homo sapiens) (UniProt P35968); assay: Inhibition of VEGFR2 (unknown origin) at 10 uM after 40 mins by scintillation counting analysis
[23] = target: T3, Tyrosine-protein kinase Lyn (Homo sapiens, UniProt P07948); assay: Inhibition of Lyn (unknown origin) at 10 uM after 40 mins by scintillation counting analysis
[24] = target: Dual specificity mitogen-activated protein kinase kinase 1 (Homo sapiens) (UniProt Q02750); assay: Inhibition of MEK1 (unknown origin) at 10 uM after 40 mins by scintillation counting analysis
[25] = target: Serine/threonine-protein kinase mTOR (Homo sapiens, UniProt P42345); assay: Inhibition of mTOR (unknown origin) at 10 uM after 40 mins by scintillation counting analysis
[26] = target: cAMP-dependent protein kinase (PKA) (Homo sapiens) (UniProt P22694+P17612+P22612); assay: Inhibition of PKA (unknown origin) at 10 uM after 40 mins by scintillation counting analysis; type: protein assay
[27] = target: Serine/threonine-protein kinase PLK1 (Homo sapiens) (UniProt P53350); assay: Inhibition of PLK1 (unknown origin) at 10 uM after 40 mins by scintillation counting analysis
[28] = target: T4, RAF proto-oncogene serine/threonine-protein kinase (Homo sapiens, UniProt P04049); assay: Inhibition of RAF1 (unknown origin) at 10 uM after 40 mins by scintillation counting analysis
[29] = target: Macrophage-stimulating protein receptor (Homo sapiens) (UniProt Q04912); assay: Inhibition of RON (unknown origin) at 10 uM after 40 mins by scintillation counting analysis
[30] = target: Proto-oncogene tyrosine-protein kinase ROS (Homo sapiens) (UniProt P08922); assay: Inhibition of ROS1 (unknown origin) at 10 uM after 40 mins by scintillation counting analysis
[31] = target: Tyrosine-protein kinase SYK (Homo sapiens) (UniProt P43405); assay: Inhibition of SYK (unknown origin) at 10 uM after 40 mins by scintillation counting analysis
[32] = target: T1, Serine/threonine-protein kinase B-raf; assay: Inhibition of BRAF (unknown origin) after 40 mins by scintillation counting analysis
[33] = target: Serine/threonine-protein kinase B-raf (Homo sapiens, UniProt P15056, V600E); assay: Inhibition of BRAF V599E mutant (unknown origin) after 40 mins by scintillation counting analysis
[34] = target: T2, Macrophage colony-stimulating factor 1 receptor; assay: Inhibition of FMS (unknown origin) after 40 mins by scintillation counting analysis
[35] = target: T3, Tyrosine-protein kinase Lyn; assay: Inhibition of Lyn (unknown origin) after 40 mins by scintillation counting analysis
[36] = target: T4, RAF proto-oncogene serine/threonine-protein kinase; assay: Inhibition of C-Raf (unknown origin) after 40 mins by scintillation counting analysis

T1 sequence (P15056 whole entry): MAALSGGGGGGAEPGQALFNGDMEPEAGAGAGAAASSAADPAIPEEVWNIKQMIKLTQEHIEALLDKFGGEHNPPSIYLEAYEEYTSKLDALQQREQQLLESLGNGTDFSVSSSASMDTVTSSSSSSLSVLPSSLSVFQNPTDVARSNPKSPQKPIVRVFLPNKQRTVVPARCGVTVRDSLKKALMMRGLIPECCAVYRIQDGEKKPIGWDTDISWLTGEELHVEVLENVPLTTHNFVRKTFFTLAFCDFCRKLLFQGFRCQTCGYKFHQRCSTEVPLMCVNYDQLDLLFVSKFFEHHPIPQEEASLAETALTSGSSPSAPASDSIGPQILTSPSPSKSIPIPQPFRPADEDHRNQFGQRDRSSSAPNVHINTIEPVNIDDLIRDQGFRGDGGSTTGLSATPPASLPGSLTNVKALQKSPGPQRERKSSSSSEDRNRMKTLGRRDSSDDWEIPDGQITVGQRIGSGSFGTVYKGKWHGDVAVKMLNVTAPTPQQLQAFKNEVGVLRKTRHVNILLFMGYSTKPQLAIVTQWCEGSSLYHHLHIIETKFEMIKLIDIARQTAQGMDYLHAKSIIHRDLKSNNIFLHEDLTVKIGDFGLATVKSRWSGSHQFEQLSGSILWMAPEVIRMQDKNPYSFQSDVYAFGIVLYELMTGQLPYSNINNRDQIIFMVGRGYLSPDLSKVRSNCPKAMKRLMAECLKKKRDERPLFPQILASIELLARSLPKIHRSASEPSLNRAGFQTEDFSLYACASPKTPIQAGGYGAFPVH
T4 sequence (P04049 whole entry): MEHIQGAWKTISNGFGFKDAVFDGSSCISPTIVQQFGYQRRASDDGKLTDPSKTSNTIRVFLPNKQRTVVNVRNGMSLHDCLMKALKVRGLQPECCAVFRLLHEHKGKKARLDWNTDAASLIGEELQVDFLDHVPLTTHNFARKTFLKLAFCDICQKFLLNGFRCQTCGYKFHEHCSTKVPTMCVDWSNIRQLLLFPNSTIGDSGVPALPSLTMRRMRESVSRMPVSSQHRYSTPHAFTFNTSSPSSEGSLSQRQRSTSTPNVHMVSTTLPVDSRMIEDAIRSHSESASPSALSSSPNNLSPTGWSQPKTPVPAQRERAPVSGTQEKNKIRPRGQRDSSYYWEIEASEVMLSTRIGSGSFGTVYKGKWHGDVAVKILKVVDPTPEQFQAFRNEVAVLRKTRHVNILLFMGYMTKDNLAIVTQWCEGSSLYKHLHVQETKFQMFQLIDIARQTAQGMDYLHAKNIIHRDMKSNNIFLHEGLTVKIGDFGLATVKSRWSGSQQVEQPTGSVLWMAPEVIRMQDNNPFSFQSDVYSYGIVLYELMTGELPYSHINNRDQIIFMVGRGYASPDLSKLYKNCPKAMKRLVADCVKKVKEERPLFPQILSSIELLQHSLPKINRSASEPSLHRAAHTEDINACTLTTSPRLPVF
T2 sequence (P07333 whole entry): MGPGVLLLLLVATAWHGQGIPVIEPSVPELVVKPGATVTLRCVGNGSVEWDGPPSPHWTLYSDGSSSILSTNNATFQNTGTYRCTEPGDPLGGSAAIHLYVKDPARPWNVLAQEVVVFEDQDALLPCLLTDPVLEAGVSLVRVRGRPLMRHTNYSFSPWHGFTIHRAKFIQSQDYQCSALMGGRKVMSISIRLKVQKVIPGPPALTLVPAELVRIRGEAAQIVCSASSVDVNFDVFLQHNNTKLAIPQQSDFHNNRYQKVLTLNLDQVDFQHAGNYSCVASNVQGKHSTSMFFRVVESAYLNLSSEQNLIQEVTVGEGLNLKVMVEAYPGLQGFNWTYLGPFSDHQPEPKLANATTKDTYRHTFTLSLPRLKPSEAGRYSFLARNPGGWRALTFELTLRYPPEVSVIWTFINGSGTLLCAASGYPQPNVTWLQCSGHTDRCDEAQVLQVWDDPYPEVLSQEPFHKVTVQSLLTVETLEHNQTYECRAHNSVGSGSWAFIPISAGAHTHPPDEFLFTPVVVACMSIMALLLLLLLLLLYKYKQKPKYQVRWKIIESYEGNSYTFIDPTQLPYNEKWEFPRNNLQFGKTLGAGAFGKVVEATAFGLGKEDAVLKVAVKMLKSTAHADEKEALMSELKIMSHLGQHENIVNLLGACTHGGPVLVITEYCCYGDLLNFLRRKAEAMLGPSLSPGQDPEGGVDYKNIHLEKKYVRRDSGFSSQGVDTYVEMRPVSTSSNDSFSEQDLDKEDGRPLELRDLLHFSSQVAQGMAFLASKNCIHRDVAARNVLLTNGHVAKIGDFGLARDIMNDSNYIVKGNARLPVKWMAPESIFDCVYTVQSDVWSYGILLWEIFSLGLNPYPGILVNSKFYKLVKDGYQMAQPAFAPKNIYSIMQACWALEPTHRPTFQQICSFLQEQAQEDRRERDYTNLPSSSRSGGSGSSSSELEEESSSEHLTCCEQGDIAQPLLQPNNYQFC
Receptor-type tyrosine-protein kinase FLT3 (Homo sapiens), sequence (P36888 whole entry): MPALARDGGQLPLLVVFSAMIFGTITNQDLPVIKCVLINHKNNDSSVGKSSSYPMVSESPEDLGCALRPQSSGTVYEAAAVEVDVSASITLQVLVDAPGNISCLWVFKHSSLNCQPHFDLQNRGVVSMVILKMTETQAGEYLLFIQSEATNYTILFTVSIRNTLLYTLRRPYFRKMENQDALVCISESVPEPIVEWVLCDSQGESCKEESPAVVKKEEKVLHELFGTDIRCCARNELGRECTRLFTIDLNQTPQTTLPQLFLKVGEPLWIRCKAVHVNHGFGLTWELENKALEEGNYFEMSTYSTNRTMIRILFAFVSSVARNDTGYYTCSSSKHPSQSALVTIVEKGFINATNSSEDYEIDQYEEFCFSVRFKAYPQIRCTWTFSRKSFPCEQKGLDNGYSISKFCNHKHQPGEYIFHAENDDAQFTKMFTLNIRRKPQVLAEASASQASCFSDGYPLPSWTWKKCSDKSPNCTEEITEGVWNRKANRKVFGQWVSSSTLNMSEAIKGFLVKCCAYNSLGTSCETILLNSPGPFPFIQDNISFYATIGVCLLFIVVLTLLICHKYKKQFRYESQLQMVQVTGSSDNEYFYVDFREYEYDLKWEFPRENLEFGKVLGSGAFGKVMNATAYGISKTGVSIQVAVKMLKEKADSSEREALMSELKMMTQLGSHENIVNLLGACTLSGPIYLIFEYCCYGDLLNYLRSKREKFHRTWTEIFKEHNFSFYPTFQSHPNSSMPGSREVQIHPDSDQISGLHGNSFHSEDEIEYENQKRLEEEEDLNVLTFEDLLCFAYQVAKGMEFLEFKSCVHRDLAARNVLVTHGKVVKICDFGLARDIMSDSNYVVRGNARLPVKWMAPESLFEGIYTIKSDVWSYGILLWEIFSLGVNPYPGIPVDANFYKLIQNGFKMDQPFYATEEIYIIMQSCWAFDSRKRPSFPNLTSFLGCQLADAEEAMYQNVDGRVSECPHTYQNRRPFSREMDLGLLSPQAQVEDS
Dual specificity mitogen-activated protein kinase kinase 1 (Homo sapiens), sequence (Q02750 whole entry): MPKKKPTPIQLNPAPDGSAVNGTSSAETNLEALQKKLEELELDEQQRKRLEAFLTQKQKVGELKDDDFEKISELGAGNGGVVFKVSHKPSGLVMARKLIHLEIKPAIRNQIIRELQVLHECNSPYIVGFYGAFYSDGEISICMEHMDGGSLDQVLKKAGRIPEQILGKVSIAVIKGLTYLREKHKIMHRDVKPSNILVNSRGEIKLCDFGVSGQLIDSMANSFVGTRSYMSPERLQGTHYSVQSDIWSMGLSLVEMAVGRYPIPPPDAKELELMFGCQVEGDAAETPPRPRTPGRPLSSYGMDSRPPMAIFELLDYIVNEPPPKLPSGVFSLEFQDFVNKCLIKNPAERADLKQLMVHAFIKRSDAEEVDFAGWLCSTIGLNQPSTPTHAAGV
Serine/threonine-protein kinase PLK1 (Homo sapiens), sequence (P53350 whole entry): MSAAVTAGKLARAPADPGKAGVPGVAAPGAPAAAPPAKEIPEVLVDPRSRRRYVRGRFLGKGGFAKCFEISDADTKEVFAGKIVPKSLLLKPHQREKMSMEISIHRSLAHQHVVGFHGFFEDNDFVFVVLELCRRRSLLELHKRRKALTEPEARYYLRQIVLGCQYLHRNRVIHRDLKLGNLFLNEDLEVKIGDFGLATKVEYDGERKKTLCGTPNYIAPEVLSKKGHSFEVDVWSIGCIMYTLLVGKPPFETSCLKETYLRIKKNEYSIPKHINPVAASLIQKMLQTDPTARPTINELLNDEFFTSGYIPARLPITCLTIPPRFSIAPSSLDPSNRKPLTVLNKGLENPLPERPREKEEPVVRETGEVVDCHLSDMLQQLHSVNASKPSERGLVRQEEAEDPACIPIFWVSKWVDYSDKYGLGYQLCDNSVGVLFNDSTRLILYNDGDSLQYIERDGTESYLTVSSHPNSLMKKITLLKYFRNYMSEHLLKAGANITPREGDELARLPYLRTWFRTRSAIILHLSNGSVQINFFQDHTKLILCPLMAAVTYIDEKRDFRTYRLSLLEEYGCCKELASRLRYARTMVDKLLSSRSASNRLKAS
Serine/threonine-protein kinase B-raf (Homo sapiens), P15056 [V600E], sequence (P15056 whole entry V600E): as the sequence (P15056 whole entry) above, with V600E counted along it
Aurora kinase A (Homo sapiens), sequence (O14965 whole entry): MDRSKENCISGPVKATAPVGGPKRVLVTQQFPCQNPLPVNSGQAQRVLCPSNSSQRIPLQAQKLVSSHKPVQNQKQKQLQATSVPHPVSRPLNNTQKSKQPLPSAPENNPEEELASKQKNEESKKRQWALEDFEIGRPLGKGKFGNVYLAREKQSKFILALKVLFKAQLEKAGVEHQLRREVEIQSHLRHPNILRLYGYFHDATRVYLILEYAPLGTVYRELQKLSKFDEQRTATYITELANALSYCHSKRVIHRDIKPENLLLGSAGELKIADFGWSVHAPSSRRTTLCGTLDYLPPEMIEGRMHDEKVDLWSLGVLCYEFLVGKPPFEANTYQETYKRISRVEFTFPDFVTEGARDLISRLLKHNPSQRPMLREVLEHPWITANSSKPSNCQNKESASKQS

SMILES: CNC(=O)c1cc(Oc2ccc(NC(=O)Nc3ccc(Cl)c(C(F)(F)F)c3)cc2)ccn1 [SORAFENIB]
- Activity (A375P): inactive
- GI50 at 24 h [1]: > 30 µM

SMILES: Cc1cc(NC(=O)Nc2ccc(Cl)cc2)ccc1NC(=O)c1cnoc1C
- GI50 (U-937): > 30 µM
- Activity (A375P): inactive
- GI50 at 24 h [1]: > 30 µM

SMILES: Cc1cc(NC(=O)Nc2ccc(Cl)c(Cl)c2)ccc1NC(=O)c1cnoc1C
- GI50 (U-937): > 30 µM
- Activity (A375P): inactive
- GI50 at 24 h [1]: > 30 µM

SMILES: Cc1ccc(NC(=O)C2(C)CCc3c(C)c(O)c(C)c(C)c3O2)cc1NC(=O)c1cnoc1C (stereo not given)
- GI50 (U-937): > 30 µM
- Activity (A375P): inactive
- GI50 at 24 h [1]: > 30 µM

SMILES: Cc1ccc(NC(=O)Cc2ccccc2F)cc1NC(=O)c1cnoc1C
- GI50 (U-937): > 30 µM
- Activity (A375P): inactive
- GI50 at 24 h [1]: > 30 µM

SMILES: Cc1ccc(NC(=O)Cc2c[nH]c3ccccc23)cc1NC(=O)c1cnoc1C
- GI50 (U-937): > 30 µM
- Activity (A375P): inactive
- GI50 at 24 h [1]: > 30 µM

SMILES: Cc1ccc(NC(=O)C(c2ccc(Cl)cc2)c2ccc(Cl)cc2)cc1NC(=O)c1cnoc1C
- GI50 (U-937): > 30 µM
- Activity (A375P): inactive
- GI50 at 24 h [1]: > 30 µM

SMILES: Cc1ccc(NC(=O)c2ccccc2Sc2ccccc2C#N)cc1NC(=O)c1cnoc1C
- GI50 (U-937): > 30 µM
- Activity (A375P): inactive
- GI50 at 24 h [1]: > 30 µM

More lines, main results first:

- GI50 (U-937): > 30 µM
SMILES: Cc1ccc(NC(=O)Cc2ccc(-c3ccccc3)cc2)cc1NC(=O)c1cnoc1C
- Activity (A375P): inactive
- GI50 at 24 h [1]: > 30 µM

- GI50 (U-937): > 30 µM
SMILES: Cc1ccc(NC(=O)c2ccc(Cl)c(C(F)(F)F)c2)cc1NC(=O)c1cnoc1C
- Activity (A375P): inactive
- GI50 at 24 h [1]: > 30 µM

- GI50 (U-937): 0.465 µM
SMILES: Cc1ccc(NC(=O)c2ccc(N3CCOCC3)c(C(F)(F)F)c2)cc1NC(=O)c1cnoc1C
- Activity (A375P): inactive
- GI50 at 24 h [1]: > 30 µM

- GI50 (U-937): 0.019 µM
SMILES: Cc1ccc(NC(=O)c2cc(-n3ccnc3C)cc(C(F)(F)F)c2)cc1NC(=O)c1cnoc1C
- Activity (A375P): inactive
- GI50 at 24 h [1]: > 30 µM

- GI50 (U-937): 0.016 µM
- inhibition [2]: 5.73%
- inhibition [3]: 0%
- inhibition [4]: 0%
- inhibition [5]: 61.2%
- inhibition [6]: 87.9%
- inhibition [7]: 7.5%
- inhibition [8]: 0%
- inhibition [9]: 0%
- inhibition [10]: 1.85%
- inhibition [11]: 4.68%
- inhibition [12]: 7.54%
- inhibition [13]: 0%
- inhibition [14]: 3.6%
- inhibition [15]: 0%
- inhibition [16]: 2.12%
- inhibition [17]: 98.7%
- inhibition [18]: 0%
- inhibition [19]: 0%
- inhibition [20]: 0%
- inhibition [21]: 15.3%
- inhibition [22]: 8.27%
- inhibition [23]: 97.8%
- inhibition [24]: 0%
- inhibition [25]: 1.14%
- inhibition [26]: 0%
- inhibition [27]: 0%
- inhibition [28]: 95.9%
- inhibition [29]: 0%
- inhibition [30]: 0%
- inhibition [31]: 3.81%
- pIC50 [32]: 5.22
- pIC50 [33]: 6.18
- pIC50 [34]: 8.00
- pIC50 [35]: 7.18
- pIC50 [36]: 7.35
SMILES: Cc1ccc(NC(=O)c2cc(N3CCN(C)CC3)cc(C(F)(F)F)c2)cc1NC(=O)c1cnoc1C
- Activity (A375P): inactive
- GI50 at 24 h [1]: > 30 µM

- GI50 (U-937): 0.026 µM
SMILES: Cc1ccc(NC(=O)c2cc(-n3cncc3C)cc(C(F)(F)F)c2)cc1NC(=O)c1cnoc1C
- Activity (A375P): inactive
- GI50 at 24 h [1]: > 30 µM

- GI50 (U-937): > 30 µM
SMILES: Cc1cc(NC(=O)c2cc(N3CCN(C)CC3)cc(C(F)(F)F)c2)ccc1NC(=O)c1cnoc1C
- Activity (A375P): inactive
- GI50 at 24 h [1]: > 30 µM

- GI50 (U-937): > 30 µM
SMILES: CCCS(=O)(=O)Nc1ccc(C)c(NC(=O)c2cnoc2C)c1
- Activity (A375P): inactive
- GI50 at 24 h [1]: > 30 µM

- GI50 (U-937): > 30 µM
SMILES: Cc1ccc(NC(=O)Nc2ccc(Cl)c(C(F)(F)F)c2)cc1NC(=O)c1cnoc1C
- Activity (A375P): inactive
- GI50 at 24 h [1]: > 30 µM
